Experimental findings from ChEMBL document CHEMBL1128975, “The effect of fluorine substitution on the antimalarial activity of tebuquine” (Bioorg Med Chem Lett, 1996) are described below.

Molecules are shown by their SMILES. pIC50: −log10 of the molar value.

Assay [1] has as its system Plasmodium falciparum. The assay can be described thus: Antimalarial activity against Plasmodium falciparum 3D7. It is filed as functional, organism-based.
Assay [2] has as its system Plasmodium falciparum. Description: Antimalarial activity against Plasmodium falciparum K1. It is filed as functional, organism-based.

As usually defined, the pIC50 is −log10 of the IC50, conventionally taken in molar units. Take `CC(C)(C)NCc1cc(Nc2ccnc3cc(Cl)ccc23)cc(-c2ccc(Cl)cc2)c1O` [TEBUQUINE]: the results for the pIC50 with Plasmodium falciparum [1] and with Plasmodium falciparum [2] were 7.74 and 7.68, respectively.

Regarding `CC(C)(C)NCc1cc(Nc2ccnc3cc(Cl)ccc23)cc(-c2ccc(Cl)cc2)c1F` [FLOUROTEBUQUINE], the pIC50 in the assay with Plasmodium falciparum [1] was 7.24; in the assay with Plasmodium falciparum [2], 7.13.
